Results published in ChEMBL document CHEMBL4715724, “Novel 5-substituted-2-anilinoquinolines with 3-(morpholino or 4-methylpiperazin-1-yl)propoxy moiety as broad spectrum antiproliferative agents: Synthesis, cell based assays and kinase screening” (Bioorg Med Chem Lett, 2016).

Assays:
[1] = tested on: Panel colon (Carcinoma cell lines); experiment: cells; type: functional; settings: Homo sapiens, time 48 hrs
Description: Growth inhibition of human Panel colon (Carcinoma cell lines) incubated for 48 hrs by sulforhodamine B assay

A549 = experiment: cells; type: functional; settings: Homo sapiens, time 48 hrs
Description: Growth inhibition of human A549/ATCC cells incubated for 48 hrs by sulforhodamine B assay

[2] = Cytotoxicity against human HFF-1 cells assessed as cell growth inhibition at 1 uM by MTT assay relative to control; type: cell-based; settings: read-out: GI
[3] = tested on: Panel ovarian (Carcinoma cell lines); experiment: cells; type: functional; settings: Homo sapiens, time 48 hrs
Description: Growth inhibition of human Panel ovarian (Carcinoma cell lines) incubated for 48 hrs by sulforhodamine B assay

HCT-116 = experiment: cells; type: functional; settings: Homo sapiens, time 48 hrs
Description: Growth inhibition of human HCT-116 cells incubated for 48 hrs by sulforhodamine B assay

NCI-H460 = experiment: cells; type: functional; settings: Homo sapiens, time 48 hrs
Description: Growth inhibition of human NCI-H460 cells incubated for 48 hrs by sulforhodamine B assay

SF-295 = experiment: cells; type: functional; settings: Homo sapiens, time 48 hrs
Description: Growth inhibition of human SF-295 cells incubated for 48 hrs by sulforhodamine B assay

[4] = tested on: Panel CNS (Carcinoma cell lines); experiment: cells; type: functional; settings: Homo sapiens, time 48 hrs
Description: Growth inhibition of human Panel CNS (Carcinoma cell lines) incubated for 48 hrs by sulforhodamine B assay

OVCAR-4 = experiment: cells; type: functional; settings: Homo sapiens, time 48 hrs
Description: Growth inhibition of human OVCAR-4 cells incubated for 48 hrs by sulforhodamine B assay

[5] = Cytotoxicity against human HFF-1 cells assessed as cell growth inhibition at 10 uM by MTT assay relative to control; type: cell-based; settings: read-out: GI
Hs-578T = experiment: cells; type: functional; settings: Homo sapiens, time 48 hrs
Description: Growth inhibition of human Hs-578T cells incubated for 48 hrs by sulforhodamine B assay

PC-3 = experiment: cells; type: functional; settings: Homo sapiens, time 48 hrs
Description: Growth inhibition of human PC-3 cells incubated for 48 hrs by sulforhodamine B assay

OVCAR-8 = experiment: cells; type: functional; settings: Homo sapiens, time 48 hrs
Description: Growth inhibition of human OVCAR-8 cells incubated for 48 hrs by sulforhodamine B assay

[6] = tested on: Panel melanoma (Carcinoma cell lines); experiment: cells; type: functional; settings: Homo sapiens, time 48 hrs
Description: Growth inhibition of human Panel melanoma (Carcinoma cell lines) incubated for 48 hrs by sulforhodamine B assay

IGROV-1 = experiment: cells; type: functional; settings: Homo sapiens, time 48 hrs
Description: Growth inhibition of human IGROV-1 cells incubated for 48 hrs by sulforhodamine B assay

TK-10 = experiment: cells; type: functional; settings: Homo sapiens, time 48 hrs
Description: Growth inhibition of human TK-10 cells incubated for 48 hrs by sulforhodamine B assay

SR = experiment: cells; type: functional; settings: Homo sapiens, time 48 hrs
Description: Growth inhibition of human SR cells incubated for 48 hrs by sulforhodamine B assay

NCI-H23 = experiment: cells; type: functional; settings: Homo sapiens, time 48 hrs
Description: Growth inhibition of human NCI-H23 cells incubated for 48 hrs by sulforhodamine B assay

[7] = Cytotoxicity against human HFF-1 cells assessed as cell growth inhibition by MTT assay; type: cell-based
MCF7 = experiment: cells; type: functional; settings: Homo sapiens, time 48 hrs
Description: Growth inhibition of human MCF7 cells incubated for 48 hrs by sulforhodamine B assay

NCI-H322M = experiment: cells; type: functional; settings: Homo sapiens, time 48 hrs
Description: Growth inhibition of human NCI-H322M cells incubated for 48 hrs by sulforhodamine B assay

UO-31 = experiment: cells; type: functional; settings: Homo sapiens, time 48 hrs
Description: Growth inhibition of human UO-31 cells incubated for 48 hrs by sulforhodamine B assay

A498 = experiment: cells; type: functional; settings: Homo sapiens, time 48 hrs
Description: Growth inhibition of human A498 cells incubated for 48 hrs by sulforhodamine B assay

SK-MEL-28 [8] = experiment: cells; type: functional; settings: Homo sapiens, time 48 hrs
Description: Growth inhibition of human SK-MEL-28 cells incubated for 48 hrs by sulforhodamine B assay

[9] = tested on: Panel NCI-60 (60 carcinoma cell lines); experiment: cells; type: functional; settings: Homo sapiens, time 48 hrs
Description: Growth inhibition of human Panel NCI-60 (60 carcinoma cell lines) incubated for 48 hrs by sulforhodamine B assay

UACC-62 = experiment: cells; type: functional; settings: Homo sapiens, time 48 hrs
Description: Growth inhibition of human UACC-62 cells incubated for 48 hrs by sulforhodamine B assay

SK-MEL-28 [10] = experiment: Growth inhibition of human SK-MEL-28 cells assessed as growth percentage at 10 uM measured after 48 hrs by sulforhodamine B assay relative to control; type: functional; settings: read-out: Activity
cells = type: functional; settings: Homo sapiens, Non-small cell lung cancer cell line; time 48 hrs
Description: Growth inhibition of human Non-small cell lung cancer cell line incubated for 48 hrs by sulforhodamine B assay

HOP-62 = experiment: cells; type: functional; settings: Homo sapiens, time 48 hrs
Description: Growth inhibition of human HOP-62 cells incubated for 48 hrs by sulforhodamine B assay

LOX IMVI = experiment: cells; type: functional; settings: Homo sapiens, time 48 hrs
Description: Growth inhibition of human LOX IMVI cells incubated for 48 hrs by sulforhodamine B assay

MDA-MB-468 = experiment: cells; type: functional; settings: Homo sapiens, time 48 hrs
Description: Growth inhibition of human MDA-MB-468 cells incubated for 48 hrs by sulforhodamine B assay

HOP-92 = experiment: cells; type: functional; settings: Homo sapiens, time 48 hrs
Description: Growth inhibition of human HOP-92 cells incubated for 48 hrs by sulforhodamine B assay

[11] = Cytotoxicity against human HFF-1 cells assessed as cell growth inhibition at 0.1 uM by MTT assay relative to control; type: cell-based; settings: read-out: GI
NCI-H522 = experiment: cells; type: functional; settings: Homo sapiens, time 48 hrs
Description: Growth inhibition of human NCI-H522 cells incubated for 48 hrs by sulforhodamine B assay

HCT-15 = experiment: cells; type: functional; settings: Homo sapiens, time 48 hrs
Description: Growth inhibition of human HCT-15 cells incubated for 48 hrs by sulforhodamine B assay

U-251 = experiment: cells; type: functional; settings: Homo sapiens, time 48 hrs
Description: Growth inhibition of human U-251 cells incubated for 48 hrs by sulforhodamine B assay

[12] = tested on: Panel renal (Carcinoma cell lines); experiment: cells; type: functional; settings: Homo sapiens, time 48 hrs
Description: Growth inhibition of human Panel renal (Carcinoma cell lines) incubated for 48 hrs by sulforhodamine B assay

KM12 = experiment: cells; type: functional; settings: Homo sapiens, time 48 hrs
Description: Growth inhibition of human KM12 cells incubated for 48 hrs by sulforhodamine B assay

CCRF-CEM = experiment: cells; type: functional; settings: Homo sapiens, time 48 hrs
Description: Growth inhibition of human CCRF-CEM cells incubated for 48 hrs by sulforhodamine B assay

SNB-75 = experiment: cells; type: functional; settings: Homo sapiens, time 48 hrs
Description: Growth inhibition of human SNB-75 cells incubated for 48 hrs by sulforhodamine B assay

[13] = tested on: Panel breast (Carcinoma cell lines); experiment: cells; type: functional; settings: Homo sapiens, time 48 hrs
Description: Growth inhibition of human Panel breast (Carcinoma cell lines) incubated for 48 hrs by sulforhodamine B assay

[14] = tested on: Panel prostate (Carcinoma cell lines); experiment: cells; type: functional; settings: Homo sapiens, time 48 hrs
Description: Growth inhibition of human Panel prostate (Carcinoma cell lines) incubated for 48 hrs by sulforhodamine B assay

NCI-H226 = experiment: cells; type: functional; settings: Homo sapiens, time 48 hrs
Description: Growth inhibition of human NCI-H226 cells incubated for 48 hrs by sulforhodamine B assay

UACC-257 = experiment: cells; type: functional; settings: Homo sapiens, time 48 hrs
Description: Growth inhibition of human UACC-257 cells incubated for 48 hrs by sulforhodamine B assay

OVCAR-3 = experiment: cells; type: functional; settings: Homo sapiens, time 48 hrs
Description: Growth inhibition of human OVCAR-3 cells incubated for 48 hrs by sulforhodamine B assay

HT-29 = experiment: cells; type: functional; settings: Homo sapiens, time 48 hrs
Description: Growth inhibition of human HT-29 cells incubated for 48 hrs by sulforhodamine B assay

[15] = tested on: Panel leukemia (Carcinoma cell lines); experiment: cells; type: functional; settings: Homo sapiens, time 48 hrs
Description: Growth inhibition of human Panel leukemia (Carcinoma cell lines) incubated for 48 hrs by sulforhodamine B assay

RXF 393 = experiment: cells; type: functional; settings: Homo sapiens, time 48 hrs
Description: Growth inhibition of human RXF 393 cells incubated for 48 hrs by sulforhodamine B assay

K562 = experiment: cells; type: functional; settings: Homo sapiens, time 48 hrs
Description: Growth inhibition of human K562 cells incubated for 48 hrs by sulforhodamine B assay

MDA-MB-231 = experiment: cells; type: functional; settings: Homo sapiens, time 48 hrs
Description: Growth inhibition of human MDA-MB-231/ATCC cells incubated for 48 hrs by sulforhodamine B assay

786-0 = experiment: Growth inhibition of human 786-0 cells assessed as growth percentage at 10 uM measured after 48 hrs by sulforhodamine B assay relative to control; type: functional; settings: read-out: Activity
[16] = read-out: LC50 (the source's name)

Structure (SMILES): CN1CCN(CCCOc2cccc3nc(Nc4cccc(Cl)c4)ccc23)CC1
- GI50 [1]: 1640 nM
- TGI [1]: 3100 nM
- CC50 [1, 16]: 5870 nM
- GI50 (A549): 2020 nM
- inhibition at 1 µM [2]: 12.2%
- GI50 [3]: 2010 nM
- LC50 [3]: 11500 nM
- TGI [3]: 4310 nM
- GI50 (HCT-116): 1550 nM
- GI50 (NCI-H460): 1870 nM
- GI50 (SF-295): 1910 nM
- GI50 [4]: 1890 nM
- TGI [4]: 4000 nM
- CC50 [4, 16]: 23300 nM
- GI50 (OVCAR-4): 1940 nM
- inhibition at 10 µM [5]: 22.4%
- GI50 (Hs-578T): 1830 nM
- GI50 (PC-3): 1810 nM
- GI50 (OVCAR-8): 1900 nM
- GI50 [6]: 1760 nM
- LC50 [6]: 6450 nM
- TGI [6]: 3370 nM
- GI50 (IGROV-1): 2230 nM
- GI50 (TK-10): 1670 nM
- GI50 (SR): 2200 nM
- GI50 (NCI-H23): 2270 nM
- GI50 [7]: > 10000 nM
- GI50 (MCF7): 1570 nM
- GI50 (NCI-H322M): 2670 nM
- GI50 (UO-31): 1840 nM
- GI50 (A498): 1880 nM
- GI50 (SK-MEL-28 [8]): 1650 nM
- GI50 [9]: 1910 nM
- TGI [9]: 4170 nM
- CC50 [9, 16]: 10700 nM
- GI50 (UACC-62): 1910 nM
- growth at 10 µM (SK-MEL-28 [10]): 35.5%
- GI50 (cells): 3730 nM
- LC50 (50% lethal concentration) (cells): 23900 nM
- TGI (cells): 8650 nM
- GI50 (HOP-62): 1720 nM
- GI50 (LOX IMVI): 1680 nM
- GI50 (MDA-MB-468): 1610 nM
- GI50 (HOP-92): 1650 nM
- inhibition at 0.1 µM [11]: 5.4%
- GI50 (NCI-H522): 1480 nM
- GI50 (HCT-15): 1580 nM
- GI50 (U-251): 1890 nM
- GI50 [12]: 1900 nM
- LC50 (lethal concentration 50%) [12]: 17400 nM
- TGI [12]: 5370 nM
- GI50 (KM12): 1780 nM
- GI50 (CCRF-CEM): 1680 nM
- GI50 (SNB-75): 1380 nM
- GI50 [13]: 1850 nM
- TGI [13]: 6690 nM
- CC50 [13, 16]: 20800 nM
- GI50 [14]: 1900 nM
- LC50 (concentration killing 50% of cells) [14]: 7020 nM
- TGI [14]: 3650 nM
- GI50 (NCI-H226): 1620 nM
- GI50 (UACC-257): 1810 nM
- GI50 (OVCAR-3): 1450 nM
- GI50 (HT-29): 1500 nM
- GI50 [15]: 1990 nM
- LC50 (50% lethal concentration) [15]: 38000 nM
- TGI [15]: 4650 nM
- GI50 (RXF 393): 1850 nM
- GI50 (K562): 1790 nM

Structure (SMILES): FC(F)(F)c1cc(Nc2ccc3c(OCCCN4CCOCC4)cccc3n2)ccc1Cl
- GI50 [1]: 1850 nM
- GI50 [3]: 3010 nM
- GI50 (HCT-116): 2070 nM
- GI50 (NCI-H460): 2750 nM
- GI50 (SF-295): 1890 nM
- GI50 [4]: 1960 nM
- GI50 (OVCAR-4): 3070 nM
- GI50 (Hs-578T): 2970 nM
- GI50 (PC-3): 2260 nM
- GI50 (MDA-MB-231): 1820 nM
- GI50 (OVCAR-8): 4330 nM
- GI50 [6]: 1950 nM
- GI50 (IGROV-1): 3960 nM
- GI50 (TK-10): 3490 nM
- GI50 (SR): 2140 nM
- GI50 (NCI-H23): 2000 nM
- GI50 (MCF7): 1660 nM
- growth at 10 µM (786-0): 37.8%
- GI50 (NCI-H322M): 2520 nM
- GI50 (UO-31): 1630 nM
- GI50 (A498): 3120 nM
- GI50 (SK-MEL-28 [8]): 1850 nM
- GI50 [9]: 2190 nM
- GI50 (UACC-62): 2050 nM
- GI50 (cells): 2320 nM
- GI50 (HOP-62): 1870 nM
- GI50 (LOX IMVI): 1730 nM
- GI50 (MDA-MB-468): 2170 nM
- GI50 (HOP-92): 1240 nM
- GI50 (HCT-15): 1640 nM
- GI50 (U-251): 1800 nM
- GI50 [12]: 2510 nM
- GI50 (KM12): 2070 nM
- GI50 (CCRF-CEM): 1630 nM
- GI50 (SNB-75): 1890 nM
- GI50 [13]: 2210 nM
- GI50 [14]: 2520 nM
- GI50 (NCI-H226): 3540 nM
- GI50 (OVCAR-3): 2020 nM
- GI50 (HT-29): 1740 nM
- GI50 [15]: 1930 nM
- GI50 (RXF 393): 1780 nM
- GI50 (K562): 2140 nM
